Patent US9370511B2, “Morphinan-derivatives for treating diabetes and related disorders” (priority 2011, dated 2016)
“Also recorded” adds a separate entry of the source.

What was measured:
[1] = tested on: painful diabetic neuropathy; conditions: in vivo; cited from earlier work
[2] = tested on: children with severe bacterial meningitis; conditions: 36 mg kg^−1 day^−1; two children, also on glucocorticoids; cited from earlier work
[3] = tested on: male subjects with type 2 diabetes mellitus; assay: Clinical trial, oral single dose followed by oral glucose tolerance test (OGTT); type: in vivo, human
Description: The study was designed as a randomized, double-blind, placebo-controlled crossover study to investigate the glucose lowering effect of oral single doses of DXM 270 mg (FIG. 10) and DXM 60 mg (FIG. 11) vs. placebo in subjects with T2DM following an oral glucose tolerance test (OGTT). DXM 270 mg, DXM 60 mg or placebo was administered orally at 0 minutes. OGTT was started at 60 minutes (75 g glucose orally). Blood glucose levels were measured at the indicated times. n=20 male with T2DM on a stable regimen of metformin monotherapy, between 45 and 70 years of age, with a BMI between 25 and 35 kg/m2, HbA1c between 7 and 8%. Student's t-test. *p=0.01, **p<0.001All values are means±SD.

[4] = tested on: mouse pancreatic islets; assay: Insulin secretion from mouse pancreatic islets at low and high glucose; type: cell-based; conditions: comparison of DXO, DXM and LEV
Description: (§1) Mouse pancreatic islets were treated with a low, non-stimulatory glucose concentration (2.5 mM) or a high, stimulatory glucose concentration (25 mM) in the absence or presence of 1 μM or 10 μM dextrorphan. Insulin secretion was determined as percent of […] glucose control, and values are expressed as means+/−SD (N=3). The asterisks (*) indicate p values smaller than 0.05 in Student's t-tests.
Low Glucose (2.5 mM); High Glucose (25 mM); p<0.05 (Student's t-Test), N=3.
Example 1 was repeated in order to compare dextrorphan, dextromethorphan, and levorphanol with one another.

[5] = tested on: db/db mouse (an animal model for human type 2 diabetes mellitus); assay: Long-term treatment of db/db mice with dextromethorphan in drinking water; type: in vivo
Source text: Therefore, long-term treatment with dextromethorphan is beneficial for beta cell function and blood glucose control in a mouse model for human type 2 diabetes mellitus.

[6] = tested on: human pancreatic islets; assay: Insulin secretion from human pancreatic islets at low and high glucose; type: cell-based; conditions: 1 μM; low glucose 2 mM vs high glucose 20 mM
Description: as §1
Example 1 was repeated but the mouse pancreatic islets were replaced by human pancreatic islets.
Low Glucose (2 mM); High Glucose (20 mM); the asterisks (*) indicate p values smaller than 0.05 in Student's t-tests.

[7] = tested on: diabetics; conditions: long-term experience; cited from earlier work
[8] = 3 mg/ml in drinking water, 8 weeks, compared to low dose 1 mg/ml

COc1ccc2c(c1)[C@]13CCCC[C@@H]1[C@H](C2)N(C)CC3 [dextromethorphan, (+)-3-methoxy-17-methyl-(9α,13α,14α)-morphinan]
efficacy in painful diabetic neuropathy [1]: effective in treating painful diabetic neuropathy | serious adverse event [2]: developed an insulin dependent diabetes mellitus | blood glucose levels during oral glucose tolerance test ([3]; 60 mg oral single dose vs placebo): too low a concentration | starving blood glucose levels ([3]; 270 mg oral single dose): does not affect starving blood glucose levels | blood glucose levels during oral glucose tolerance test ([3]; 270 mg oral single dose vs placebo): significantly lowers blood glucose levels after glucose uptake | hypoglycemic events ([3]; 20 patients, oral single doses): no hypoglycemic events were observed | glucose-dependent insulin secretion, compared with levorphanol [4]: significantly more effective in inducing glucose-dependent insulin secretion than levorphanol | glucose-dependent insulin secretion, compared with levorphanol ([4]; listed as DXM): increase glucose-dependent insulin secretion from pancreatic islets to a significantly larger extent compared to LEV | effectiveness of the low dose ([5]; 1 mg/ml in drinking water): ineffective | beta cell area [5, 8]: significantly larger | insulin content of islets [5, 8]: significantly increased; also recorded: contained significantly more insulin | starving blood glucose levels [5, 8]: significantly improved starving blood glucose levels; also recorded: lower blood glucose levels or better blood glucose control

CN1CC[C@]23CCCC[C@H]2[C@H]1Cc1ccc(O)cc13 [levorphanol]
glucose-dependent insulin secretion, compared with levorphanol [4]: not the levorotatory (−) stereoisomer that mainly targets opioid receptors, increases glucose-dependent insulin secretion to a large extent

COc1ccc(Cl)cc1C(=O)NCCc1ccc(S(=O)(=O)NC(=O)NC2CCCCC2)cc1 [glibenclamide]
insulin secretion, basal and glucose-stimulated [6]: increases both basal (2 mM glucose) and glucose-stimulated (20 mM glucose) insulin secretion

CN(C)C(=N)N=C(N)N [metformin]
reduction of diabetes complications and mortality [7]: about 30%
